Here are results for 25 compounds from patent publication US20060004051A1, “Compounds” (priority 2002, published 2006).

pIC50: −log10 of the molar value.

One series has as its system TGF-β signalling (PAI-1 promoter linked to firefly luciferase) in HepG2 cells. Nature of the series: Cellular transcriptional assay (PAI-1 promoter luciferase reporter, TGF-β stimulated). To be noted: 500 μM CPO with TGF-β; relative to TGF-β only.
Experimental: The assay was performed in HepG2 cells stably transfected with the PAI-1 promoter (known to be a strong TGF-β responsive promoter) linked to a luciferase (firefly) reporter gene. The compounds were selected on their ability to inhibit luciferase activity in cells exposed to TGF-β. In addition, cells were transfected with a second luciferase (Renilla) gene which was not driven by a TGF-β responsive promoter and was used as a toxicity control.
96 well microplates were seeded, using a multidrop apparatus, with the stably transfected cell line at a concentration of 35000 cells per well in 200 μl of serum-containing medium. These plates were placed in a cell incubator.
18 to 24 hours later (Day 2), cell-incubation procedure was launched. Cells were incubated with TGF-β and a candidate compound at concentrations in the range 50 nM to 10 μM (final concentration of DMSO 1%). The final concentration of TGF-β (rhTGFβ-1) used in the test was 1 ng/mL. […] The final volume of the test reaction was 150 μl. Each well contained only one candidate compound and its effect on the PAI-1 promoter was monitored.
Columns 11 and 12 were employed as controls. Column 11 contained 8 wells in which the cells were incubated in the presence of TGF-β, without a candidate compound. Column 11 was used to determine the ‘reference TGF-β induced firefly luciferase value’ against which values measured in the test wells (to quantify inhibitory activity) were compared. In wells A12 to D12, cells were grown in medium without TGF-β. […]
12 to 18 hours later (day 3), the luciferase quantification procedure was launched. […] Following agitation (15 to 30 mins), luciferase activities of the plates were read in a dual-injector luminometer (BMG lumistar). For this purpose, 50 μl of luciferase assay reagent and 50 μl of ‘Stop & Glo’ buffer were injected sequentially to quantify the activities of both luciferases. […] For each of the compounds tested, a concentration response curve was constructed from which an IC50 value was determined graphically.
Consider `O=C1C=CCC1` [CPO, Cyclopentenone, reference compound], for which the “firefly and renilla luciferase activities (toxicity control)” value was “around 50%”.

The same series, now with this note: Homo sapiens, HepG2, read-out: TGF-β cellular activity (IC50).
Regarding `CCN1CCN(c2ccc(-c3cc(-c4sc(N)nc4-c4cccc(C)n4)ccn3)cc2)CC1` [Example 3], the negative logarithm of the IC50 (pIC50) was 7.54.
Same read-out and setting: the result for `Cc1cccc(-c2sc(N)nc2-c2ccnc(-c3ccc(CN(C)C)cc3)c2)n1` [Example 25, 4-[2-(4-((dimethylamino)methyl)phenyl)pyridin-4-yl]-5-[6-methylpyridin-2-yl]-1,3-thiazol-2-amine] reads 7.51.

Tested on in the next series: not given
Assay: not given
Conditions: not given
For the compound `Nc1nc(-c2ccccn2)c(-c2ccnc(-c3ccc(N4CCOCC4)cc3)c2)s1` [Example 1], the melting point came to 246 °C.
In the case of `Cc1cccc(-c2nc(N)sc2-c2ccnc(-c3ccc(S(C)(=O)=O)cc3)c2)n1` [Example 2, 5-{2-[4-(methanesulfonyl)phenyl]pyridin-4-yl}-4-(6-methylpyridin-2-yl)-1,3-thiazol-2-amine], the melting point was in the range of 236 to 238 °C.
`CCN1CCN(c2ccc(-c3cc(-c4sc(N)nc4-c4cccc(C)n4)ccn3)cc2)CC1` [Example 3] displayed a melting point of 230 to 232 °C.
Same read-out and setting: the result for `Cc1cccc(-c2nc(N)sc2-c2ccnc(-c3ccc(N4CCOCC4)cc3)c2)n1` [Example 4, 5-{2-[4-(morpholin-4-yl)phenyl]pyridinyl-4-yl}-4-(6-methylpyridin-2-yl)-1,3-thiazol-2-amine] reads 250 to 252 °C; that for `Cc1cccc(-c2nc(N)sc2-c2ccnc(-c3ccc(C(=O)N4CCOCC4)cc3)c2)n1` [Example 5, 5-{2-[4-((morpholin-4-yl)carbonyl)phenyl]pyridin-4-yl]-4-(6-methylpyridin-2-y)-1,3-thiazol-2-amine], 158 to 160 °C; that for `Cc1cccc(-c2nc(N)sc2-c2ccnc(-c3ccc(C(=O)NC4CCOCC4)cc3)c2)n1` [Example 6, 5-{2-[4((tetrahydropyran-4-yl)-aminocarbonyl)-phenyl]pyridin-4-yl}-4-(6-methylpyridin-2-yl)-1,3-thiazol-2-amine], 230 to 232 °C.
Take `Cc1cccc(-c2nc(N)sc2-c2ccnc(-c3ccc(CN4CCOCC4)cc3)c2)n1` [Example 7, 5-{2-[4-((morpholin-4-yl)methyl)phenyl]pyridin-4-yl}-4-(6-methylpyridin-2-yl)-1,3-thiazol-2-amine]: the melting point was in the range of 190 to 192 °C.
Still for that read-out and setting: the value for `COc1ccc(-c2cc(-c3sc(N)nc3-c3cccc(C)n3)ccn2)cc1` [Example 8, 5-{2-[4methoxyphenyl]pyridin-4-yl}-4-(6methylpyridin-2-yl)-1,3-thiazol-2-amine] was 188 to 190 °C; that for `Cc1cccc(-c2nc(N)sc2-c2ccnc(-c3ccc(OC(F)(F)F)cc3)c2)n1` [Example 9, 5-{2-[4-trifluoromethoxyphenyl]pyridin-4-yl}-4-(6-methylpyridin-2-yl)-1,3-thiazol-2-amine] was 222 to 224 °C.
On the same count and under the same terms, the value for `Cc1cccc(-c2nc(N)sc2-c2ccnc(-c3ccc(OCCN4CCCC4)cc3)c2)n1` [Example 11, 5-{2-[4-(2-(pyrrolidin-1-yl)-ethoxy)-phenyl]pyridin-4-yl}-4-(6-methylpyridin-2-yl)-1,3-thiazol-2-amine] was 176 to 178 °C; that for `Cc1cccc(-c2nc(N)sc2-c2ccnc(-c3ccc(OCc4cn(C)cn4)cc3)c2)n1` [Example 12, 5-{2-[4-((1-methyl-imidazol-4-yl)methyloxy)-phenyl]pyridin-4-yl}-4-(6-methylpyridin-2-yl)-1,3-thiazol-2-amine] was 226 to 228 °C.
The compound `Cc1cccc(-c2sc(N)nc2-c2ccnc(-c3ccc(Cl)cc3)c2)n1` [Example 13, 4-[2-(4-chlorophenyl)pyridin-4-yl]-5-(6-methylpyridin-2-yl]-1,3-thiazol-2-amine] returned a melting point of 222 °C.
On the same count and under the same terms, the value for `Cc1cccc(-c2sc(N)nc2-c2ccnc(-c3ccc(OC(F)(F)F)cc3)c2)n1` [Example 14, 4-[2-(4-trifluoromethoxyphenyl)pyridin-4-yl]-5-[6-methylpyridin-2-yl]-1,3-thiazol-2-amine] was 232 °C; that for `Cc1cccc(-c2sc(N)nc2-c2ccnc(-c3ccc(C(=O)N4CCOCC4)cc3)c2)n1` [Example 17] was 246 °C.
On the same count and under the same terms, the result for `CCN1CCN(C(=O)c2ccc(-c3cc(-c4nc(N)sc4-c4cccc(C)n4)ccn3)cc2)CC1` [Example 18] reads 224 °C; that for `Cc1cccc(-c2sc(N)nc2-c2ccnc(-c3ccc(CN4CCOCC4)cc3)c2)n1` [Example 19, 4-[2-(4-((morpholin-4-yl)methyl)phenyl)pyridin-4-yl]-5-[6-methylpyridin-2-yl]-1,3-thiazol-2-amine], 236 °C.
Still for that read-out and setting: the value for `Cc1cccc(-c2sc(N)nc2-c2ccnc(-c3ccc(N4CCOCC4)cc3)c2)n1` [Example 20, 4-[2-(4-(morpholin-4-yl)phenyl)pyridin-4-yl]-5-[6-methylpyridin-2-yl]-1,3-thiazol-2-amine] was 246 °C.
As to `Cc1cccc(-c2sc(N)nc2-c2ccnc(-c3ccc(OCCN4CCCC4)cc3)c2)n1` [Example 21, 4-[2-(4-(2-(pyrolidin-1-yl)-ethoxy)phenyl)pyridin-4-yl]-5-[6-methylpyridin-2-yl]-1,3-thiazol-2-amine], the melting point was 150 °C.
The same measure, in the same setting: the result for `Cc1cccc(-c2sc(N)nc2-c2ccnc(-c3ccc(OCC(N)=O)cc3)c2)n1` [Example 22, 4-[2-(4-(aminocarbonylmethyloxy)phenyl)pyridin-4-yl]-5-[6-methylpyridin-2-yl]-1,3-thiazol-2-amine] reads 191 °C.
`Cc1cccc(-c2sc(N)nc2-c2ccnc(-c3ccc(OCC(=O)N4CCOCC4)cc3)c2)n1` [Example 23, 4-[2-(4-((morpholin-4-yl)carbonylmethyloxy)phenyl)pyridin-4-yl]-5-[6-methylpyridin-2-yl]-1,3-thiazol-2-amine] returned a melting point of 172 °C.
With `Cc1cccc(-c2sc(N)nc2-c2ccnc(-c3ccc(CN4CCCC4)cc3)c2)n1` [Example 24, 4-[2-(4-((pyrrolidin-1-yl)methyl)phenyl)pyridin-4-yl]-5-[6-methylpyridin-2-yl]-1,3-thiazol-2-amine], the melting point stood at 200 °C.
Turning to `Cc1cccc(-c2sc(N)nc2-c2ccnc(-c3ccc(CN(C)C)cc3)c2)n1` [Example 25, 4-[2-(4-((dimethylamino)methyl)phenyl)pyridin-4-yl]-5-[6-methylpyridin-2-yl]-1,3-thiazol-2-amine], the melting point is 210 °C.
On the same count and under the same terms, the value for `Nc1nc(-c2ccnc(-c3ccc(C(=O)NC4CCOCC4)cc3)c2)c(-c2ccccn2)s1` [Example 26, 4-[2-(4-((tetrahydropyran-4-yl)aminocarbonyl)phenyl)pyridin-4-yl]-5-[pyridin-2-yl]-1,3-thiazol-2-amine] was 268 °C; that for `Nc1nc(-c2ccnc(-c3ccc(N4CCOCC4)cc3)c2)c(-c2ccccn2)s1` [Example 27, 4-[2-(4-(morpholin-4-yl)phenyl)pyridin-4-yl]-5-[pyridin-2-yl]-1,3-thiazol-2-amine] was 276 °C.

The target of another series is T1, recombinant GST-ALK5 (residues 198-503) (Homo sapiens, UniProt P36897).
T1 construct: recombinant GST-ALK5 (residues 198-503)
T1 sequence (P36897 198-503): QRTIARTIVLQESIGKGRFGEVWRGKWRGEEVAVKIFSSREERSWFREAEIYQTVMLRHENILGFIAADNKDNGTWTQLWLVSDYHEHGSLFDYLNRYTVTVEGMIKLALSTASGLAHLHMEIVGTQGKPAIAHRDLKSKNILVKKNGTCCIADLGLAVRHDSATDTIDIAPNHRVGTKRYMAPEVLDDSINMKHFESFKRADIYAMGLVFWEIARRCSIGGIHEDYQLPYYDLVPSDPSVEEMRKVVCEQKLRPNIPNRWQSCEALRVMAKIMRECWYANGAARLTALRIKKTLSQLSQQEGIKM
Nature of the series: Alk5 fluorescence polarization assay. The format is binding. The settings on record: rhodamine green-labelled ligand 1 nM, ALK5 10 nM, read-out: ALK5 receptor modulator activity (IC50). The method, then: Assay 2 (Alk5 Fluorescence Polarization Assay)
Kinase inhibitor compounds conjugated to fluorophores, can be used as fluorescent ligands to monitor ATP competitive binding of other compounds to a given kinase. The increase in depolarization of plane polarized light, caused by release of the bound ligand into solution, is measured as a polarization/anisotropy value. This protocol details the use of a rhodamine green-labelled ligand for assays using recombinant GST-ALK5 (residues 198-503).
Assay buffer components: 62.5 mM Hepes pH 7.5 (Sigma H-4034), 1 mM DTT (Sigma D-0632), 12.5 mM MgCl2 (Sigma M-9272), 1.25 mM CHAPS (Sigma C-3023). […]
ALK5 was added to assay buffer containing the above components and 1 nM of the rhodamine green-labelled ligand so that the final ALK5 concentration was 10 nM based on active site titration of the enzyme. […] The plates were read immediately on a LJL Acquest fluorescence reader (Molecular Devices, serial number AQ1048) with excitation, emission, and dichroic filters of 485 nm, 530 nm, and 505 nm, respectively. The fluorescence polarization for each well was calculated by the Acquest reader and then imported into curve fitting software for construction of concentration response curves. The normalized response was determined relative to the high controls (1 μl DMSO in column 12, rows A-D) and the low controls (1 μl of control compound in column 12, rows E-H). […]
For the compound `CCN1CCN(c2ccc(-c3cc(-c4sc(N)nc4-c4cccc(C)n4)ccn3)cc2)CC1` [Example 3], the pIC50 was 7.85.
Still for that read-out and setting: the result for `Cc1cccc(-c2sc(N)nc2-c2ccnc(-c3ccc(CN(C)C)cc3)c2)n1` [Example 25, 4-[2-(4-((dimethylamino)methyl)phenyl)pyridin-4-yl]-5-[6-methylpyridin-2-yl]-1,3-thiazol-2-amine] reads 7.54.
